Reference: patent EP0173319A1, “Substituted arylsulfonyl guanidines” (BAYER AG, priority 1984, dated 1986)

How the values were obtained:
Testpflanzen [1] = test: Pre-emergence-Test (herbicidal); assay type: in vivo; details: soil watered 24 h after sowing, damage rated after three weeks vs untreated control (0 % = keine Wirkung, 100 % = totale Vernichtung), rate or species not given
Description: (§1) Lösungsmittel: 5 Gewichtsteile Aceton Emulgator: 1 Gewichtsteil Alkylarylpolyglykolether
(§2) Zur Herstellung einer zweckmäßigen Wirkstoffzubereitung vermischt man 1 Gewichtsteil Wirkstoff mit der angegebenen Menge Lösungsmittel, gibt die angegebene Menge Emulgator zu und verdünnt das Konzentrat mit Wasser auf die gewünschte Konzentration.
Samen der Testpflanzen werden in normalen Boden ausgesät und nach 24 Stunden mit der Wirkstoffzubereitung begossen. Dabei hält man die Wassermenge pro Flächeneinheit zweckmäßigerweise konstant. Die Wirkstoffkonzentration in der Zubereitung spielt keine Rolle, entscheidend ist nur die Aufwandmenge des Wirkstoffs pro Flächeneinheit. Nach drei Wochen wird der Schädigungsgrad der Pflanzen bonitiert in % Schädigung im Vergleich zur Entwicklung der unbehandelten Kontrolle. Es bedeuten: • 0 % = keine Wirkung (wie unbehandelte Kontrolle) 100 % = totale Vernichtung

Testpflanzen [2] = test: Post-emergence-Test (herbicidal); assay type: in vivo; details: test plants 5 - 15 cm high sprayed, damage rated after three weeks vs untreated control (0 % = keine Wirkung, 100 % = totale Vernichtung), rate or species not given
Description: as §1, §2
Mit der Wirkstoffzubereitung spritzt man Testpflanzen, welche eine Höhe von 5 - 15 cm haben so, daß die jeweils gewünschten Wirkstoffmengen pro Flächeneinheit ausgebracht werden. Die Konzentration der Spritzbrühe wird so gewählt, daß in 2000 1 Wasser/ha die jeweils gewünschten Wirkstoffmengen ausgebracht werden. Nach drei Wochen wird der Schädigungsgrad der Pflanzen bonitiert in % Schädigung im Vergleich zur Entwicklung der unbehandelten Kontrolle.
Es bedeuten: • 0 % = keine Wirkung (wie unbehandelte Kontrolle) 100 % = totale Vernichtung

SMILES | herbizide Wirksamkeit (Testpflanzen [1]) | herbizide Wirksamkeit (Testpflanzen [2])
Cc1cc(C)nc(NC(=NS(=O)(=O)c2ccccc2S(=O)(=O)N(C)C)NN(C)C)n1 [Beispiel 2, N'-(4,6-Dimethyl-pyrimidin-2-yl)-N''-dimethylamino-N'''-(2-dimethylamino-sulfonyl-benzolsulfonyl)-guanidin] | sehr gute herbizide Wirksamkeit | sehr gute herbizide Wirksamkeit
CON(C(=NS(=O)(=O)c1ccccc1SC)Nc1nc(C)cc(C)n1)S(=O)(=O)c1ccccc1SC [Beispiel 1, N'-(4,6-Dimethyl-pyrimidin-2-yl)-N''-methoxy-N'',N'''-bis-(2-methylthio-benzolsulfonyl)-guanidin] | sehr gute herbizide Wirksamkeit | sehr gute herbizide Wirksamkeit
Cc1cc(C)nc(NC(=NS(=O)(=O)c2ccccc2S(=O)(=O)N(C)C)N(OCC(C)C)S(=O)(=O)c2ccccc2S(=O)(=O)N(C)C)n1.[K] [Beispiel 4, N'-(4,6-Dimethyl-pyrimidin-2-yl)-N''-(2-methyl-propoxy)-N'',N'''-bis-(2-dimethylaminosulfonyl-benzolsulfonyl)-guanidin-Kaliumsalz] | – | sehr gute herbizide Wirksamkeit
